Columns and labels:
Cbl-b [1] = target: T1, Cbl-b (Homo sapiens, UniProt Q13191); test: Cbl-b Degradation Method B (Nano-Glo HiBiT lytic detection); assay type: cell-based; details: Cbl-b-HiBit KI Jurkat Cells, incubated at least 6-24 hours; for DC50: half maximal degradation, read-out: Cbl-b Degredation Method B IC50; for Dmax: maximum degradation observed, read-out: Cbl-b Degredation Method B Dmax (%)
T1 construct: Cbl-b-HiBit KI Jurkat Cells were purchased from Promega; host or cells: Cbl-b-HiBiT knock-in Jurkat cells
T1 sequence (Q13191 whole entry): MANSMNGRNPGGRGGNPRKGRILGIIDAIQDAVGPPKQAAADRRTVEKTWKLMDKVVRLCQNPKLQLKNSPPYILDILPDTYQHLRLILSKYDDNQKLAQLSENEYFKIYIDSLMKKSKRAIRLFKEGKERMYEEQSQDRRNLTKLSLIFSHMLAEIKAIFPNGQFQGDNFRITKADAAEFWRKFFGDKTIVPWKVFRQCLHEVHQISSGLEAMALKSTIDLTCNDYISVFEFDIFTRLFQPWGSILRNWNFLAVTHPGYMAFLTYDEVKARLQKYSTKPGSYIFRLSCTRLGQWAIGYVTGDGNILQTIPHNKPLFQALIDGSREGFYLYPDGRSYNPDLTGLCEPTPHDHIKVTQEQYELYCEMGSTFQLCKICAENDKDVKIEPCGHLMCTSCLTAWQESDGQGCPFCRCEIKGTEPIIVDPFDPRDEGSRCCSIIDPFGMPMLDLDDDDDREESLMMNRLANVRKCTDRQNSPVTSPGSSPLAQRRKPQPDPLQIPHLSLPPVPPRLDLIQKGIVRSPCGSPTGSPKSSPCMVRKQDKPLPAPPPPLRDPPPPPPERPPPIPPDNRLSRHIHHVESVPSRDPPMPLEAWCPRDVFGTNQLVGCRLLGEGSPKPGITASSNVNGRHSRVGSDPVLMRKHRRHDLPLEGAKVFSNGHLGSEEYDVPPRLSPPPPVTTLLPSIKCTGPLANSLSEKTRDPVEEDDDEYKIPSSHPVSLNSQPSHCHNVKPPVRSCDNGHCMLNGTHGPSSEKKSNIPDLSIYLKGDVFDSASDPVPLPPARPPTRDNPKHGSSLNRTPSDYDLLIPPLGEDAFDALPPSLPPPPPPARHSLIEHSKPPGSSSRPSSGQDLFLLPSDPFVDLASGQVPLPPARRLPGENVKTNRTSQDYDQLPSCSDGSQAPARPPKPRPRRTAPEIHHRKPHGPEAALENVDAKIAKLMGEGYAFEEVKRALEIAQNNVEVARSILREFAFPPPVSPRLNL
Procedure, shortened: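 Cbl-b-HiBiT knock-in Jurkat cells (20,000/well) were treated after ~24 h plating with an 11-point 1:3 series for 6-24 h at 37° C. Remaining Cbl-b measured by Nano-Glo HiBiT lytic luminescence. DC50 and Dmax expressed as % of control.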

Cbl-b [2] = target: T1, Cbl-b; test: Cbl-b Degradation Method A (FACS, anti-Cbl-b antibody staining); assay type: cell-based; details: Cbl-b-HiBit KI Jurkat Cells, incubated at least 20 hours; for DC50: half maximal degradation, read-out: Cbl-b Degredation Method A IC50; for Dmax: Jurkat, maximum degradation observed, read-out: Cbl-b Degredation Method A Dmax (%)
Procedure, shortened: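 Cbl-b-HiBit KI Jurkat cells treated with compound for at least 20 h at 37 °C, then fixed, permeabilized and stained with anti-Cbl-b antibody plus anti-rabbit AF488 secondary. Cbl-b levels read by FACS; DC50 and Dmax (percent of control) derived.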

Structure (SMILES)	DC50 (Cbl-b [1])	DC50 (Cbl-b [2])	Dmax (Cbl-b [1])	Dmax (Cbl-b [2])
Cn1cnnc1CC1(c2cccc(N3Cc4c(cc(N5CC6(CCN(Cc7ccc8c(c7)C(=O)N(C7CCC(=O)NC7=O)C8=O)CC6)C5)cc4C(F)(F)F)C3=O)c2)COC1 (stereo not shown) [Example 130, 2-(2,6-dioxopiperidin-3-yl)-5-({2-[2-(3-{3-[(4-methyl-4H-1,2,4-triazol-3-yl)methyl]oxetan-3-yl}phenyl)-3-oxo-7-(trifluoromethyl)-2,3-dihydro-1H-isoindol-5-yl]-2,7-diazaspiro[3.5]nonan-7-yl}methyl)-2,3-dihydro-1H-isoindole-1,3-dione]	> 500 nM	> 500 nM		
Cn1cnnc1CC1(c2cccc(N3Cc4c(cc(N5CC6(CCN(CC7CCN(c8ccc9c(n8)CN(C8CCC(=O)NC8=O)C9=O)CC7)CC6)C5)cc4C(F)(F)F)C3=O)c2)COC1 (stereo not shown) [Example 131, 3-{2-[4-({2-[2-(3-{3-[(4-methyl-4H-1,2,4-triazol-3-yl)methyl]oxetan-3-yl}phenyl)-3-oxo-7-(trifluoromethyl)-2,3-dihydro-1H-isoindol-5-yl]-2,7-diazaspiro[3.5]nonan-7-yl}methyl)piperidin-1-yl]-5-oxo-5H,6H,7H-pyrrolo[3,4-b]pyridin-6-yl}piperidine-2,6-dione]	< 5 nM	5 to 50 nM	35 to 70%	35 to 70%
Cn1cnnc1CC1(c2cccc(N3Cc4c(cc(N5CC6(CCN(CC7CN(c8ccc9c(c8)C(=O)N(C8CCC(=O)NC8=O)C9=O)C7)CC6)C5)cc4C(F)(F)F)C3=O)c2)COC1 (stereo not shown) [Example 132, 2-(2,6-dioxopiperidin-3-yl)-5-[3-({2-[2-(3-{3-[(4-methyl-4H-1,2,4-triazol-3-yl)methyl]oxetan-3-yl}phenyl)-3-oxo-7-(trifluoromethyl)-2,3-dihydro-1H-isoindol-5-yl]-2,7-diazaspiro[3.5]nonan-7-yl}methyl)azetidin-1-yl]-2,3-dihydro-1H-isoindole-1,3-dione]	< 5 nM	5 to 50 nM	35 to 70%	35 to 70%
Cn1cnnc1CC1(c2cccc(N3Cc4c(cc(N5CCC(CC6CN(c7ccc8c(c7)C(=O)N(C7CCC(=O)NC7=O)C8=O)C6)CC5)cc4C(F)(F)F)C3=O)c2)COC1 (stereo not shown) [Example 134, 2-(2,6-dioxopiperidin-3-yl)-5-[3-({1-[2-(3-{3-[(4-methyl-4H-1,2,4-triazol-3-yl)methyl]oxetan-3-yl}phenyl)-3-oxo-7-(trifluoromethyl)-2,3-dihydro-1H-isoindol-5-yl]piperidin-4-yl}methyl)azetidin-1-yl]-2,3-dihydro-1H-isoindole-1,3-dione]	> 500 nM	50 to 500 nM		< 35%
Cn1cnnc1CC1(c2cccc(N3Cc4c(cc(N5CCC6(CC5)CN(CC5CCN(c7ccc8c(c7)C(=O)N(C7CCC(=O)NC7=O)C8=O)CC5)C6)cc4C(F)(F)F)C3=O)c2)COC1 (stereo not shown) [Example 135, 2-(2,6-dioxopiperidin-3-yl)-5-[4-({7-[2-(3-{3-[(4-methyl-4H-1,2,4-triazol-3-yl)methyl]oxetan-3-yl}phenyl)-3-oxo-7-(trifluoromethyl)-2,3-dihydro-1H-isoindol-5-yl]-2,7-diazaspiro[3.5]nonan-2-yl}methyl)piperidin-1-yl]-2,3-dihydro-1H-isoindole-1,3-dione]	> 500 nM	50 to 500 nM		
Cn1cnnc1C[C@]1(c2cccc(N3Cc4c(cc(N5CC6(CCN(CC7CCN(c8ccc9c(c8)C(=O)N(C8CCC(=O)NC8=O)C9=O)CC7)CC6)C5)cc4C(F)(F)F)C3=O)c2)C[C@H](C#N)C1 (stereo partly shown) [Example 136, (1r,3r)-3-(3-{6-[7-({1-[2-(2,6-dioxopiperidin-3-yl)-1,3-dioxo-2,3-dihydro-1H-isoindol-5-yl]piperidin-4-yl}methyl)-2,7-diazaspiro[3.5]nonan-2-yl]-1-oxo-4-(trifluoromethyl)-2,3-dihydro-1H-isoindol-2-yl}phenyl)-3-[(4-methyl-4H-1,2,4-triazol-3-yl)methyl]cyclobutane-1-carbonitrile]	5 to 50 nM	5 to 50 nM	35 to 70%	35 to 70%
